These results are taken from US10799475B2, “Substituted phenyl aziridine precursor analogs for inhibiting androgen-independent prostate cancer cell growth” (Northwestern University, priority 2007, dated 2020).

The target of the assay is T1, GR (Homo sapiens, UniProt P04150).
T1 sequence (P04150 1-777): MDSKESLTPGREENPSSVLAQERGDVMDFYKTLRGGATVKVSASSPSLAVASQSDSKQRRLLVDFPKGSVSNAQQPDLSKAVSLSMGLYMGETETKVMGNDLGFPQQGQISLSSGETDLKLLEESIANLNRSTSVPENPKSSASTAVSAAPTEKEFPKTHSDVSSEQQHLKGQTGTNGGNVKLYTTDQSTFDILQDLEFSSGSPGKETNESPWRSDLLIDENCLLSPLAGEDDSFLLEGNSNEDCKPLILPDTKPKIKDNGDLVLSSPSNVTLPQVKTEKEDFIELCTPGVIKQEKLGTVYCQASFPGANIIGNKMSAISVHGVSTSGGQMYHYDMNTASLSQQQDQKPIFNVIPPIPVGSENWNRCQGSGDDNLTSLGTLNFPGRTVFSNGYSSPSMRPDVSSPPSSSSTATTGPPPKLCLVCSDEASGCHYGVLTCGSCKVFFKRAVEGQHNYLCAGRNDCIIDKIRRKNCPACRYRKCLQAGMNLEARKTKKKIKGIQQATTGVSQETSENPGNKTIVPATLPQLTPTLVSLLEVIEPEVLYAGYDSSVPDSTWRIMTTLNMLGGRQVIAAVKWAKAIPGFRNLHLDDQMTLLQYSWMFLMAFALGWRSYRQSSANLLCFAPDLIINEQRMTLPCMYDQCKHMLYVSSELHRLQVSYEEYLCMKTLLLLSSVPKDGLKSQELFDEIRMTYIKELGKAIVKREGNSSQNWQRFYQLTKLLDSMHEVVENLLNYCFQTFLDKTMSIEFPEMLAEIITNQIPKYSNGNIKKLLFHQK
The assay is described as follows: TAT.Luc dual Luciferase assay of GR transactivation in PC cells. In kind it is cell-based. Also on record: expressed in transfected cells; host or cells: LNCaP-GR (lentiviral GR); also DU145 and PC3 (endogenous GR). The settings on record: PC cells, 24 hours. How it is done: FIG. 3. Effect of CpdA on GR function in PC cells. A. & B. CpdA-activated GR nuclear translocation. Cells were treated with CpdA, glucocorticoid FA, or anti-glucocorticoid RU486. Panel A (immunofluorescence). Panel B (Western blotting of nuclear protein using HDAC-1 and β-tubulin as protein loading controls). C. CpdA decreased GR-DNA binding (EMSA, nuclear proteins). LNCaP-GR cells were treated with 0.01% DMSO (control), Dex (10^−7 M) or CpdA (10^−5 M) for 4 hours. D. & E. CpdA effect on GR function. PC cells were transiently transfected with TAT.Luc (D) or κB.Luc (E), and control Renilla Luciferase reporters, treated with Dex (10^−6 M) or CpdA (10^−5 M) for 24 hours. For activation of NF-κB, cells were co-transfected with CMV.IKKβ plasmid (in panel E). Reporter activity was assessed by dual Luciferase assay and presented as factor of change.
FIG. 4. CpdA effect on GR function. A. & B. PC cells were transiently transfected with TAT.Luc (A) or κB.Luc (B), and control Renilla Luciferase reporters. Cells were treated with Dex (10^−6 M) and CpdA (10^−5 M) for 24 hours. For activation of NF-κB (as shown in panel B), cells were co-transfected with CMV.IKKβ plasmid. Reporter activity was assessed by dual Luciferase assay and presented as factor of change. […]

Consider `CC1(C)O[C@@H]2C[C@H]3[C@@H]4C[C@H](F)C5=CC(=O)C=C[C@]5(C)[C@@]4(F)[C@@H](O)C[C@]3(C)[C@]2(C(=O)CO)O1` [FA, fluocinolone acetonide, reference compound], for which the “induction of TAT.Luc reporter activity” value is 10-15 folds.
